SMILES strings stand for the structures.

Consider ten molecules from patent US20110044938A1 (NYCOMED GMBH, priority 2006, published 2011).

Assay [1] concerns RKO (RKOp27) human colon adenocarcinoma cells. The experiment in a line: Alamar Blue cell viability assay, anti-proliferative/cytotoxic activity on proliferating RKO subclones. The conditions noted are these: RKOp27, 72 h, RKO p27 uninduced (proliferating) cells, value = class bound given in Table A, read-out: −logIC50 RKO p27 uninduced (proliferating) (converted). Type of assay: cell-based. The procedure, abridged:
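Alamar Blue fluorescence (ex 544, em 590 nm) after 72 h compound exposure at 37 °C, 5% CO2, normalised to untreated controls set at 100%. Cells were seeded at 5000 per well and dosed 24 h later with serial semi-logarithmic dilutions in 10% FCS DMEM, four replicates each. −log IC50 [mol/l] was derived from concentration-effect curves.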
(Resazurin is reduced to fluorescent resorufin, in cell work by metabolically active cells.)

In assay [2] the test system is subclones of RKO colon adenocarcinoma cells (RKOp27 or RKOp21) arrested by Ponasterone A. In words: Alamar Blue cell viability assay, cell cycle specific mode of action: cells arrested by ectopic p27Kip1 induced by Ponasterone A versus proliferating cells. Type of assay: cell-based. The conditions noted are these: Homo sapiens, RKO p27 induced (arrested) cells, 10 μM Ponasterone A, 72 hours, value = class bound given in Table A, read-out: −logIC50 RKO p27 induced (arrested) (converted). The procedure, abridged:
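Viability of proliferating versus Ponasterone A (10 μM)-arrested RKOp27/RKOp21 cells after 72 h compound exposure at 37° C, in quadruplicate. Read-out is Alamar Blue fluorescence (544/590 nm) normalised to untreated cells = 100%; values as −log IC50.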

As to `CC(CC(=O)Nc1sc2c(c1C#N)CCC(OC(=O)NCC1CCCO1)C2)c1ccccc1` (centres unmarked) [Example 297, (Tetrahydro-furan-2-ylmethyl)-carbamic acid 3-cyano-2-(3-phenyl-butanoyl-amino)-4,5,6,7-tetrahydro-benzo[b]thiophen-6-yl ester], the IC50 was 501 to 2000 nM in assay [1] and not below 10000 nM in assay [2].

Take `Cc1n[nH]cc1CNC(=O)OC1CCc2c(sc(NC(=O)CC(C)c3ccccc3)c2C#N)C1` (centres unmarked) [Example 298, (3-Methyl-1H-pyrazol-4-ylmethyl)-carbamic acid 3-cyano-2-(3-phenyl-butanoylamino)-4,5,6,7-tetrahydro-benzo[b]thiophen-6-yl ester]: the IC50 was not above 501 nM in assay [1] and not below 10000 nM in assay [2].

With `CC(CC(=O)Nc1sc2c(c1C#N)CCC(OC(=O)NC(C)c1ccnn1C)C2)c1ccccc1` (centres unmarked) [Example 299, [1-(2-Methyl-2H-pyrazol-3-yl)-ethyl]-carbamic acid 3-cyano-2-(3-phenyl-butanoylamino)-4,5,6,7-tetrahydro-benzo[b]thiophen-6-yl ester], the IC50 was not above 501 nM in assay [1] and not below 50100 nM in assay [2].

For the molecule `CC(CC(=O)Nc1sc2c(c1C#N)CCC(OC(=O)NCc1cccn1C)C2)c1ccccc1` (centres unmarked) [Example 300, (1-Methyl-1H-pyrrol-2-ylmethyl)-carbamic acid 3-cyano-2-(3-phenyl-butanoylamino)-4,5,6,7-tetrahydro-benzo[b] thiophen-6-yl ester], the results for the IC50 in assay [1] and in assay [2] were not above 501 nM and not below 50100 nM, respectively.

For the molecule `Cc1nn(C)cc1CNC(=O)OC1CCc2c(sc(NC(=O)CC(C)c3ccccc3)c2C#N)C1` (centres unmarked) [Example 301, (1,3-Dimethyl-1H-pyrazol-4-ylmethyl)-carbamic acid 3-cyano-2-(3-phenyl-butanoylamino)-4,5,6,7-tetrahydro-benzo[b]thiophen-6-yl ester], the IC50 is not above 501 nM in assay [1] and not below 50100 nM in assay [2].

As for `Cc1cc(CNC(=O)OC2CCc3c(sc(NC(=O)CC(C)c4ccccc4)c3C#N)C2)n(C)n1` (centres unmarked) [Example 302, (2,5-Dimethyl-2H-pyrazol-3-ylmethyl)-carbamic acid 3-cyano-2-(3-phenyl-butanoylamino)-4,5,6,7-tetrahydro-benzo[b]thiophen-6-yl ester], the IC50 in assay [1] was not above 501 nM; in assay [2], not below 50100 nM.

`CCn1nccc1CNC(=O)OC1CCc2c(sc(NC(=O)CC(C)c3ccccc3)c2C#N)C1` (centres unmarked) [Example 303, (2-Ethyl-2H-pyrazol-3-ylmethyl)-carbamic acid 3-cyano-2-(3-phenyl-butanoylamino)-4,5,6,7-tetrahydro-benzo[b] thiophen-6-yl ester]: the IC50 in assay [1] is not above 501 nM; in assay [2], not below 50100 nM.

`CC(CC(=O)Nc1sc2c(c1C#N)CCC(COC(=O)NCc1ccccn1)C2)c1ccccc1` (centres unmarked) [Example 304, Pyridin-2-ylmethyl-carbamic acid 3-cyano-2-(3-phenyl-butanoylamino)-4,5,6,7-tetrahydro-benzo[b] thiophen-6-ylmethyl ester]: the IC50 is not above 501 nM in assay [1] and not below 50100 nM in assay [2].

Consider `CC(CC(=O)Nc1sc2c(c1C#N)CCC(COC(=O)NCc1ccncc1)C2)c1ccccc1` (centres unmarked) [Example 306, Pyridin-4-ylmethyl-carbamic acid 3-cyano-2-(3-phenyl-butanoyl-amino)-4,5,6,7-tetrahydro-benzo[b] thiophen-6-ylmethyl ester], for which the IC50 in assay [1] is not above 501 nM; in assay [2] it was not below 50100 nM.

For the molecule `CC(CC(=O)Nc1sc2c(c1C#N)CCC(COC(=O)NCCc1cccnc1)C2)c1ccccc1` (centres unmarked) [Example 307, (2-Pyridin-3-yl-ethyl)-carbamic acid 3-cyano-2-(3-phenyl-butanoylamino)-4,5,6,7-tetrahydro-benzo[b]thiophen-6-ylmethyl ester], the IC50 was not above 501 nM in assay [1] and not below 50100 nM in assay [2].
